Source: patent US9642869B2, “Boronic acid derivatives and therapeutic uses thereof” (Rempex Pharmaceuticals, Inc., priority 2013, dated 2017)
Where two headings read alike, the source gives them in different places.

Tests used:
[1] = system: CMY-6 EC1010; assay: Aztreonam potentiation (MPC@4); assay type: cell-based; conditions: minimum BLI concentration inhibiting growth with 4 μg/mL aztreonam
[2] = system: KPC-2 KP1004; assay: Aztreonam potentiation (MPC@4); assay type: cell-based; conditions: minimum BLI concentration inhibiting growth with 4 μg/mL aztreonam
[3] = system: SHV-5 ec308; assay: Aztreonam potentiation (MPC@4); assay type: cell-based; conditions: minimum BLI concentration inhibiting growth with 4 μg/mL aztreonam
[4] = system: SHV-5 ec308; assay type: cell-based; conditions: for TIG MPC4 SHV-5 ec308: minimum BLI concentration inhibiting growth with tigemonam at 4 μg/mL
[5] = system: KP1004 KPC-2; assay: Biapenem potentiation (MPC@1); assay type: cell-based; conditions: minimum BLI concentration inhibiting growth with 1 μg/mL biapenem
Experimental: (§1) Biapenem was present in the test medium at 1 μg/mL. […] Table 3 summarizes the BLI potency of biapenem potentiation (MPC@1) for two strains overexpressing class A (KPC) and class D (OXA-48) carbapenemases. Biapenem MIC for each strain is also shown.

[6] = system: OXA-48 KP1086; assay: Biapenem potentiation (MPC@1); assay type: cell-based; conditions: minimum BLI concentration inhibiting growth with 1 μg/mL biapenem
Experimental: as §1

[7] = system: CTX-M-14 KP1005; assay type: cell-based
[8] = system: ECL1002; assay: Aztreonam potentiation (MPC@4); assay type: cell-based; conditions: minimum BLI concentration inhibiting growth with 4 μg/mL aztreonam
[9] = system: CTX-M-15 KP1009; assay type: cell-based
[10] = molecular target: SHV-12 (Klebsiella pneumoniae, UniProt P0AD64, E235K/G234S/L31Q); assay: Inhibition of nitrocefin cleavage by purified enzyme (Ki); assay type: biochemical; conditions: nitrocefin reporter substrate, 10 min preincubation; read-out: Ki (SHV-12, NCF)
Experimental: Purified enzymes were mixed with various concentrations of inhibitors in reaction buffer and incubated for 10 min at room temperature. Nitrocefin was added and substrate cleavage profiles were recorded at 490 nm every 10 sec for 10 min.

[11] = system: CTX-M-15 KP1009; assay: Aztreonam potentiation (MPC@4); assay type: cell-based; conditions: minimum BLI concentration inhibiting growth with 4 μg/mL aztreonam
[12] = system: TEM-10 ec302; assay type: cell-based
[13] = system: ECL1002; assay type: cell-based; conditions: for TIG MPC4 ECL1002: minimum BLI concentration inhibiting growth with tigemonam at 4 μg/mL
[14] = Intravenous pharmacokinetics; assay type: in vivo; conditions: rat, plasma, rats, IV infusion over 0.5 hours, read-out: Free Cl (converted)
Experimental: Rats (n=3 per compound) were administered by a single infusion. IV doses were infused over 0.5 hours via an indwelling femoral vein cannula. Plasma (˜0.3 mL) samples were collected from each rat at designated time points up to 24 hours. Blood samples were centrifuged within 5 min of collection at 12000 g for 5 min to obtain plasma. The plasma samples were stored at −80° C. until analyzed. Data were analyzed using WinNonlin.

[15] = system: CMY-6 EC1010; assay type: cell-based; conditions: strain CMY-6 EC1010, tigemonam alone
[16] = Salt/complex formation to maintain the monomeric form (solution pH, monomer by HPLC); assay type: physicochemical
Experimental: The effect of additives that would form a salt or complex with the boronic acid derivatives was evaluated in order to identify those that would strongly favor the monomeric form at an acceptable pH for IV infusion (pH 4-8). […] The pH of the resulting homogeneous solution was measured with a pH meter and the purity was monitored by HPLC. Several bases and complexing agents were screened to identify those that would afford the highest monomer content as salt/complex with a desired pH. […] Oligomerization was more pronounced at higher concentrations with some bases and complexing agents. Among all the bases screened, the meglumine complex gave the highest percentage of monomeric form at the desired pH.

[17] = Compound 13 2 mg/mL in water, Pyridine-2-methanol, 2 equivalents
[18] = Compound 13 3 mg/mL in water, L-Lysine, 2 equivalents
[19] = Compound 13 10 mg/mL in water, 0.5N NaOH, 1 equivalent
[20] = Compound 13 10 mg/mL in water, 0.5N NaOH, 2 equivalents
[21] = Compound 13 10 mg/mL in water, Diethanolamine, 2 equivalents
[22] = Compound 13 10 mg/mL in water, Ethanolamine, 2 equivalents
[23] = Compound 13 10 mg/mL in water, Tris, 2 equivalents
[24] = Compound 13 50 mg/mL in water, Tris, 2 equivalents
[25] = Compound 13 50 mg/mL in water, Tris, 3 equivalents

SHV-12, sequence (P0AD64 22-286 L31Q/G234S/E235K): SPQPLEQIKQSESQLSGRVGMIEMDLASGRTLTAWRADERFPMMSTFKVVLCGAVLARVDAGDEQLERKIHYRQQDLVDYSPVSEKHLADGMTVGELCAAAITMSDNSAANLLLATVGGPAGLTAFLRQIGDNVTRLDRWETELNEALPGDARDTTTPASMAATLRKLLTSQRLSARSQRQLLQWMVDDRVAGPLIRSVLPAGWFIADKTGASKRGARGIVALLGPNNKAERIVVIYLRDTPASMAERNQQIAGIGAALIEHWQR

| Compound | AZT MPC4 CMY-6 EC1010 [1] | AZT MPC4 KPC-2 KP1004 [2] | AZT MPC4 SHV-5 ec308 [3] | TIG MPC4 SHV-5 ec308 [4] | BPM MPC1 KP1004 KPC-2 [5] | BPM MPC1 OXA-48 KP1086 [6] | TIG MPC4 CTX-M-14 KP1005 [7] | AZT MPC4 ECL1002 [8] | TIG MPC4 CTX-M-15 KP1009 [9] | Ki [10] | AZT MPC4 CTX-M-15 KP1009 [11] | TIG MPC4 TEM-10 ec302 [12] | TIG MPC4 ECL1002 [13] | clearance ([14]; dose 20 mg/kg) | further results |
| --- | --- | --- | --- | --- | --- | --- | --- | --- | --- | --- | --- | --- | --- | --- | --- |
| O=C(Cc1cccs1)N[C@H]1Cc2cccc(C(=O)O)c2OB1O [CPD A, reference compound] | Y (MIC of 1 μg/mL to 10 μg/mL) | Y (MIC of 1 μg/mL to 10 μg/mL) | X (MIC of less than 1 μg/mL) | Y (MIC of 1 μg/mL to 10 μg/mL) | X (MIC of less than 1 μg/mL) | Y (MIC of 1 μg/mL to 10 μg/mL) | Y (key: X: MIC of less than 1 μg/mL; Y: MIC of 1 μg/mL to 10 μg/mL; Z: MIC of greater than 10 μg/mL) | Y (MIC of 1 μg/mL to 10 μg/mL) | Y (key: X: MIC of less than 1 μg/mL; Y: MIC of 1 μg/mL to 10 μg/mL; Z: MIC of greater than 10 μg/mL) | < 1 nM | Y (MIC of 1 μg/mL to 10 μg/mL) | Z (key: X: MIC of less than 1 μg/mL; Y: MIC of 1 μg/mL to 10 μg/mL; Z: MIC of greater than 10 μg/mL) | Y (MIC of 1 μg/mL to 10 μg/mL) | – | – |
| O=C(CSC(F)F)N[C@H]1Cc2cccc(C(=O)O)c2OB1O [Compound 3, (R)-3-(2-(difluoromethylthio)acetamido)-2-hydroxy-3,4-dihydro-2H-benzo[e][1,2]oxaborinine-8-carboxylic acid] | X (MIC of less than 1 μg/mL) | Y (MIC of 1 μg/mL to 10 μg/mL) | X (MIC of less than 1 μg/mL) | X (MIC of less than 1 μg/mL) | X (MIC of less than 1 μg/mL) | Y (MIC of 1 μg/mL to 10 μg/mL) | X (key: X: MIC of less than 1 μg/mL; Y: MIC of 1 μg/mL to 10 μg/mL; Z: MIC of greater than 10 μg/mL) | Y (MIC of 1 μg/mL to 10 μg/mL) | X (key: X: MIC of less than 1 μg/mL; Y: MIC of 1 μg/mL to 10 μg/mL; Z: MIC of greater than 10 μg/mL) | < 1 nM | – | Y (key: X: MIC of less than 1 μg/mL; Y: MIC of 1 μg/mL to 10 μg/mL; Z: MIC of greater than 10 μg/mL) | Y (MIC of 1 μg/mL to 10 μg/mL) | 40.8 mL/min/kg | – |
| O=CN[C@H]1Cc2cccc(C(=O)O)c2OB1O [Compound 4, (R)-3-formamido-2-hydroxy-3,4-dihydro-2H-benzo[e][1,2]oxaborinine-8-carboxylic acid] | – | X (MIC of less than 1 μg/mL) | Y (MIC of 1 μg/mL to 10 μg/mL) | Y (MIC of 1 μg/mL to 10 μg/mL) | X (MIC of less than 1 μg/mL) | Y (MIC of 1 μg/mL to 10 μg/mL) | Y (key: X: MIC of less than 1 μg/mL; Y: MIC of 1 μg/mL to 10 μg/mL; Z: MIC of greater than 10 μg/mL) | Y (MIC of 1 μg/mL to 10 μg/mL) | Y (key: X: MIC of less than 1 μg/mL; Y: MIC of 1 μg/mL to 10 μg/mL; Z: MIC of greater than 10 μg/mL) | 1 to 10 nM | Y (MIC of 1 μg/mL to 10 μg/mL) | Z (key: X: MIC of less than 1 μg/mL; Y: MIC of 1 μg/mL to 10 μg/mL; Z: MIC of greater than 10 μg/mL) | X (MIC of less than 1 μg/mL) | 28.8 mL/min/kg | – |
| Nc1nnc(C(=O)N[C@H]2Cc3cccc(C(=O)O)c3OB2O)s1 [Compound 19, (R)-3-(5-amino-1,3,4-thiadiazole-2-carboxamido)-2-hydroxy-3,4-dihydro-2H-benzo[e][1,2]oxaborinine-8-carboxylic acid] | X (MIC of less than 1 μg/mL) | Y (MIC of 1 μg/mL to 10 μg/mL) | X (MIC of less than 1 μg/mL) | X (MIC of less than 1 μg/mL) | X (MIC of less than 1 μg/mL) | Y (MIC of 1 μg/mL to 10 μg/mL) | Y (key: X: MIC of less than 1 μg/mL; Y: MIC of 1 μg/mL to 10 μg/mL; Z: MIC of greater than 10 μg/mL) | Y (MIC of 1 μg/mL to 10 μg/mL) | Y (key: X: MIC of less than 1 μg/mL; Y: MIC of 1 μg/mL to 10 μg/mL; Z: MIC of greater than 10 μg/mL) | < 1 nM | – | Y (key: X: MIC of less than 1 μg/mL; Y: MIC of 1 μg/mL to 10 μg/mL; Z: MIC of greater than 10 μg/mL) | Y (MIC of 1 μg/mL to 10 μg/mL) | – | clearance ([14]; dose 10 mg/kg): 20.8 mL/min/kg |
| CC1(C)[C@H](NC(=O)/C(=N\OCC(=O)O)c2csc(N)n2)C(=O)N1OS(=O)(=O)O [Tigemonam, reference compound] | – | – | – | – | – | – | – | – | – | – | – | – | – | – | Tigemonam MIC ([4]; strain SHV-5 ec308, tigemonam alone): >64 µg/mL; Tigemonam MIC [15]: 16 µg/mL; Tigemonam MIC ([7]; strain CTX-M-14 KP1005, tigemonam alone): >64 µg/mL; Tigemonam MIC ([9]; strain CTX-M-15 KP1009, tigemonam alone): >64 µg/mL; Tigemonam MIC ([12]; strain TEM-10 ec302, tigemonam alone): >64 µg/mL; Tigemonam MIC ([13]; strain ECL1002, tigemonam alone): 32 µg/mL |
| O=C(CSc1nncs1)N[C@H]1Cc2cccc(C(=O)O)c2OB1O [Compound 7, (R)-3-(2-(1,3,4-thiadiazol-2-ylthio)acetamido)-2-hydroxy-3,4-dihydro-2H-benzo[e][1,2]oxaborinine-8-carboxylic acid] | – | Y (MIC of 1 μg/mL to 10 μg/mL) | X (MIC of less than 1 μg/mL) | X (MIC of less than 1 μg/mL) | X (MIC of less than 1 μg/mL) | Y (MIC of 1 μg/mL to 10 μg/mL) | X (key: X: MIC of less than 1 μg/mL; Y: MIC of 1 μg/mL to 10 μg/mL; Z: MIC of greater than 10 μg/mL) | Y (MIC of 1 μg/mL to 10 μg/mL) | X (key: X: MIC of less than 1 μg/mL; Y: MIC of 1 μg/mL to 10 μg/mL; Z: MIC of greater than 10 μg/mL) | < 1 nM | – | – | Y (MIC of 1 μg/mL to 10 μg/mL) | 60.7 mL/min/kg | – |
| CSCC(=O)N[C@H]1Cc2cccc(C(=O)O)c2OB1O [Compound 13, (R)-2-hydroxy-3-(2-(methylthio)acetamido)-3,4-dihydro-2H-benzo[e][1,2]oxaborinine-8-carboxylic acid] | X (MIC of less than 1 μg/mL) | X (MIC of less than 1 μg/mL) | X (MIC of less than 1 μg/mL) | X (MIC of less than 1 μg/mL) | X (MIC of less than 1 μg/mL) | Y (MIC of 1 μg/mL to 10 μg/mL) | X (key: X: MIC of less than 1 μg/mL; Y: MIC of 1 μg/mL to 10 μg/mL; Z: MIC of greater than 10 μg/mL) | X (MIC of less than 1 μg/mL) | X (key: X: MIC of less than 1 μg/mL; Y: MIC of 1 μg/mL to 10 μg/mL; Z: MIC of greater than 10 μg/mL) | – | X (MIC of less than 1 μg/mL) | Y (key: X: MIC of less than 1 μg/mL; Y: MIC of 1 μg/mL to 10 μg/mL; Z: MIC of greater than 10 μg/mL) | X (MIC of less than 1 μg/mL) | 41.2 mL/min/kg | Monomer purity by HPLC (%) [16, 17]: 78%; pH [16, 17]: 5.5; Monomer purity by HPLC (%) [16, 18]: 97.3%; pH [16, 18]: 8.9; Monomer purity by HPLC (%) [16, 19]: 51.3%; pH [16, 19]: 7.3; Monomer purity by HPLC (%) [16, 20]: 60.9%; pH [16, 20]: 8.4; Monomer purity by HPLC (%) [16, 21]: 92.2%; pH [16, 21]: 11; Monomer purity by HPLC (%) [16, 22]: 97.1%; pH [16, 22]: 11; pH ([16]; Compound 13 10 mg/mL in water, Meglumine, 2 equivalents): 7.1; Monomer purity by HPLC (%) [16, 23]: 94.7%; pH [16, 23]: 7.8; pH ([16]; Compound 13 50 mg/mL in water, Meglumine, 2 equivalents): 7.2; Monomer purity by HPLC (%) [16, 24]: 89.7%; pH [16, 24]: 7.7; Monomer purity by HPLC (%) [16, 25]: 95.4%; pH [16, 25]: 8.5 |
